Like-named read-outs stand apart in the source and are kept apart here. Blank lines part the entries; values can stand above or below the molecule they belong to.
Experiments:
[1] = system: HS68 cells (human skin fibroblast cell line (Rb-positive)); test: G1 arrest (cellular G1 and S-phase) assay; type: cell-based; conditions: Homo sapiens, Hs68, HS68 cells
Protocol: For determination of cellular fractions in various stages of the cell cycle following various treatments, HS68 cells (human skin fibroblast cell line (Rb-positive)) were stained with propidium iodide staining solution and run on Dako Cyan Flow Cytometer. The fraction of cells in G0-G1 DNA cell cycle versus the fraction in S-phase DNA cell cycle was determined using FlowJo 7.2 0.2 analysis.
The compounds listed in Table 1 were tested for their ability to arrest HS68 cells at the G1 phase of the cell cycle.

CDK2/CyclinE = CDK2/CyclinE (Homo sapiens (Human), UniProt P24941); test: CDK2/CyclinE kinase assay (Nanosyn, Caliper microfluidic); type: biochemical; conditions: for IC50: read-out: CDK2/CycE IC50
[2] = system: A2058 (human metastatic melanoma cells - Rb-negative); test: Cellular proliferation assay (CellTiter-Glo), A2058; type: cell-based; conditions: A2058, 144 h, six days
Protocol: (§1) Cellular proliferation assays were conducted using the following Rb-negative cancer cell lines: H69 (human small cell lung cancer—Rb-negative) cells or A2058 (human metastatic melanoma cells—Rb-negative). These cells were seeded in Costar (Tewksbury, Mass.) 3093 96 well tissue culture treated white walled/clear bottom plates. Cells were treated with the compounds of Table 1 as nine point dose response dilution series from 10 uM to 1 nM. Cells were exposed to compounds and then cell viability was determined after either four (H69) or six (A2058) days as indicated using the CellTiter-Glo® luminescent cell viability assay (CTG; Promega, Madison, Wis., United States of America) following the manufacturer's recommendations. Plates were read on BioTek (Winooski, Vt.) Syngergy2 multi-mode plate reader. The Relative Light Units (RLU) were plotted as a result of variable molar concentration and data was analyzed using Graphpad (LaJolla, Calif.) Prism 5 statistical software to determine the EC50 for each compound.

[3] = system: H69 (human small cell lung cancer - Rb-negative) cells; test: Cellular proliferation assay (CellTiter-Glo), H69; type: cell-based; conditions: NCI-H69, 96 h, four days
Protocol: as §1

CDK4/CyclinD1 = CDK4/CyclinD1 (Homo sapiens (Human), UniProt P11802); test: CDK4/CyclinD1 kinase assay (Nanosyn, Caliper microfluidic); type: biochemical; conditions: read-out: CDK4/CycD1 IC50
Chain of CDK4/CyclinD1 (P11802 whole entry, species assumed): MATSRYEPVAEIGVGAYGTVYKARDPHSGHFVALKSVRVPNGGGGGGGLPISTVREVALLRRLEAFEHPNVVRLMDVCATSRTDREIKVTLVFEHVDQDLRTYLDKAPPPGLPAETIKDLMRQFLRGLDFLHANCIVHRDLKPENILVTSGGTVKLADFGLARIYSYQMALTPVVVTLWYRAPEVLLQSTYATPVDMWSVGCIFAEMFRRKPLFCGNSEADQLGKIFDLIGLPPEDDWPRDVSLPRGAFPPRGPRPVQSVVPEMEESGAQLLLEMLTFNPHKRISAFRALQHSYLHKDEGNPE
Chain of CDK4/CyclinD1 (P24385 whole entry partner, species assumed): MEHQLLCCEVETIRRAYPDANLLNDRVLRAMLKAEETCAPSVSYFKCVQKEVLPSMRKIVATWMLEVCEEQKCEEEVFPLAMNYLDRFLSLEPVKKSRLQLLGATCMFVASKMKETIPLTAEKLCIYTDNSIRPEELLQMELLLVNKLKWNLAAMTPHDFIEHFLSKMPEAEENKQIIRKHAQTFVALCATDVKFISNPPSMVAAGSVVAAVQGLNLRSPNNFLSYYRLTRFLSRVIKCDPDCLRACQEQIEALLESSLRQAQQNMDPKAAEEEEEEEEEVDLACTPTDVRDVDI

CDK2/CyclinA = CDK2/CyclinA (Homo sapiens (Human), UniProt P24941); test: CDK2/CyclinA kinase assay (Nanosyn, Caliper microfluidic); type: biochemical; conditions: for IC50: read-out: CDK2/CycA IC50
How it was run: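 Each compound was run as a 12-point single-replicate titration, with staurosporine as reference, using microfluidic (Caliper) separation of phosphorylated peptide.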

CDK6/CyclinD3 = CDK6/CyclinD3 (Homo sapiens (Human), UniProt Q00534); test: CDK6/CyclinD3 kinase assay (Nanosyn, Caliper microfluidic); type: biochemical; conditions: Table 3; read-out: CDK6/CycD3 IC50
Chain of CDK6/CyclinD3 (Q00534 whole entry, species assumed): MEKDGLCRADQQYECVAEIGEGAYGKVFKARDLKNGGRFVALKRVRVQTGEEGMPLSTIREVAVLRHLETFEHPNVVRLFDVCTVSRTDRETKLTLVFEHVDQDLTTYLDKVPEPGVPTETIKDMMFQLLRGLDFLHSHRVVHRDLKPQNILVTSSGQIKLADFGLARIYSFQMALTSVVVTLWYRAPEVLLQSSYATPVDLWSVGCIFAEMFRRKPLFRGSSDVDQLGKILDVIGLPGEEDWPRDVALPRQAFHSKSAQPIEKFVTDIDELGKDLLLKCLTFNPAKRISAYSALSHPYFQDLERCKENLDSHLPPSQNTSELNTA
Chain of CDK6/CyclinD3 (P30281 whole entry partner, species assumed): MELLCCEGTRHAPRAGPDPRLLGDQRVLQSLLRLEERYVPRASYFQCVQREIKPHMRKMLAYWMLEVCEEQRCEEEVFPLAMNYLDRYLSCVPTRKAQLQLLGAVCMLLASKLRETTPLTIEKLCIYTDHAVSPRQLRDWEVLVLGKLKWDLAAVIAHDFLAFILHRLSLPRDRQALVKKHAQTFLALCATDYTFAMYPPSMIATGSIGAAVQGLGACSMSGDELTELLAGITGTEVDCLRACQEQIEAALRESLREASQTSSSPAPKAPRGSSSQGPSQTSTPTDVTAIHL

bone marrow progenitors = test: Carboplatin-induced cytotoxicity in bone marrow (EdU); type: in vivo, FVB/n mice; conditions: 150 mg/kg oral gavage plus 90 mg/kg carboplatin i.p., 24 hours
Protocol: To assess the effect of transient CDK4/6 inhibition by Compound GG on carboplatin-induced cytotoxicity in the bone marrow, FVB/n mice (n=3 per group) were treated with vehicle control, 90 mg/kg carboplatin by intraperitoneal injection, or 150 mg/kg Compound GG by oral gavage plus 90 mg/kg carboplatin by intraperitoneal injection. 24 hours after treatment bone marrow was harvested and the percent of cycling bone marrow progenitors was measured by EdU incorporation as explained earlier. […] EdU incorporation in control animals was normalized to 100% and compared to EdU incorporation for bone marrow from carboplatin treated animals or carboplatin and Compound GG treated animals.

HSPCs (bone marrow) = test: HSPC proliferation in bone marrow by EdU incorporation after oral gavage; type: in vivo, mice
Protocol: Mice were then sacrificed at the indicated times (0, 12, 24, 36, or 48 hours following compound administration), and bone marrow was harvested (n=3 mice per time point), as previously described (Johnson et al. J. Clin. Invest. (2010) 120(7), 2528-2536). Four hours before the bone marrow was harvested, mice were treated with 100 μg of EdU by intraperitoneal injection (Invitrogen). Bone marrow mononuclear cells were harvested and immunophenotyped using previously described methods and percent EdU positive cells were then determined (Johnson et al. J. Clin. Invest. (2010) 120(7), 2528-2536). In brief, HSPCs were identified by expression of lineage markers (Lin-), Sca1 (S+), and c-Kit (K+).
Four hours before animals were sacrificed and the bone marrow was harvested, mice were treated with 100 μg of EdU by intraperitoneal injection. Three mice per group were sacrificed at 12 hours and the remaining three animals per group were sacrificed at 24 hours. Results are shown in FIG. 6A as the ratio of EdU positive cells for treated animals at 12 or 24 hour time points compared to control.
Further experiments were completed with Compound T examining dose response and longer periods of compound treatment. […] […].
Both compounds were administered at 150 mg/kg by oral gavage. One hour prior to harvesting bone marrow, EdU was IP injected to label cycling cells. Bone marrow was harvested at 12, 24, 36, and 48 hours after compound treatment and the percentage of EdU positive HSPC cells was determined at each time point.

[4] = Mouse pharmacokinetics (oral gavage / intravenous); type: in vivo, mice; conditions: mouse
[5] = system: RB-intact, Cdk4/6-dependent cell line (WM2664 or tHS68); test: EdU proliferation, RB-intact Cdk4/6-dependent cell line; conditions: 24 hours
[6] = system: RB-negative SCLC cell lines (H69, H82, H209, H345, NCI417, or SHP-77); test: EdU proliferation, RB-negative SCLC cell lines; conditions: 24 hours

Fold Selectivity (CDK2/CycE/CDK4) (CDK2/CyclinE; Table 2): 68
IC50 (CDK2/CyclinE; Table 2): 187 nM
EC50 [2]: > 3000 nM
EC50 [3]: > 3000 nM
IC50 (CDK4/CyclinD1; Table 2): 2.8 nM
Fold Selectivity (CDK2/CycA/CDK4) (CDK2/CyclinA; Table 2): 31
IC50 (CDK2/CyclinA; Table 2): 85 nM
Structure (SMILES): CN1CCN(C(=O)c2ccc(Nc3ncc4cc5n(c4n3)C3(CCCC3)CNC5=O)nc2)CC1 [BBB]
EC50 [1]: 230 nM

Structure (SMILES): CC(C)N1CCN(c2ccc(Nc3ncc4cc5n(c4n3)C3(CCCCC3)CNC5=O)nc2)CC1 [Compound GG, 2′-((5-(4-isopropylpiperazin-1-yl)pyridin-2-yl)amino)-7′,8′-dihydro-6′H-spiro[cyclohexane-1,9′-pyrazino[1′,2′:1,5]pyrrolo[2,3-d]pyrimidin]-6′-one]
IC50 (CDK6/CyclinD3): 4.7 nM
protection of cycling bone marrow progenitors (EdU) (bone marrow progenitors): significant protection of bone marrow progenitors
EdU incorporation into HSPCs at 12 and 24 hours compared to control (HSPCs (bone marrow); 150 mg/kg oral gavage): reduction in EdU incorporation at 12 hours which was starting to return to normal at 24 hours
G1-arrest of bone marrow stem cells (HSPC) (HSPCs (bone marrow); oral gavage, mice): dose dependent, transient, and reversible G1-arrest
Fold Selectivity CDK2/CDK4 (CDK2/CyclinE; CDK2/CycE IC50 divided by CDK4/CycD1 IC50): 3377
Fold Selectivity (CDK2/CycE/CDK4) (CDK2/CyclinE; Table 2): 3377
IC50 (CDK2/CyclinE; Table 2): 3580 nM
IC50 (CDK2/CyclinE; Table 3): 3580 nM
F [4]: 52%
half-life ([4]; plasma, po, 30 mg/kg, 30 mg/kg oral gavage, read-out: t1/2 p.o. (converted)): 3.5 h
half-life ([4]; plasma, po, 30 mg/kg, read-out: plasma half-life following oral administration): 3 to 5 h
bioavailability ([4]; plasma, po, 30 mg/kg, read-out: oral bioavailability (F (%))): 52 to 80%
AUC(0-inf) ([4]; plasma, iv, 10 mg/kg i.v.): 1.1 µM·h
clearance ([4]; plasma, iv, 10 mg/kg i.v.): 82 mL/min/kg
Vd ([4]; plasma, iv, 10 mg/kg i.v., read-out: Vss): 7.5 L/kg
AUC ([4]; plasma, 30 mg/kg oral gavage): 1.9 µM·h
Cmax ([4]; plasma, 30 mg/kg oral gavage): 1900 nM
Tmax ([4]; plasma, 30 mg/kg oral gavage): 1 h
effect on proliferation (EdU, percent of cells in S-phase) [5]: inhibits the Rb-positive cell line (tHS68)
IC50 (CDK4/CyclinD1; Table 2): 1 nM
IC50 (CDK4/CyclinD1; Table 3): 1.06 nM
effect on proliferation (EdU, percent of cells in S-phase) [6]: does not affect the growth of the Rb-negative cell lines
Fold Selectivity (CDK2/CycA/CDK4) (CDK2/CyclinA; Table 2): 1425
IC50 (CDK2/CyclinA; Table 2): 1510 nM
IC50 (CDK2/CyclinA; Table 3): 1510 nM

Reference: US9464092B2, “Transient protection of normal cells during chemotherapy” (G1 Therapeutics, Inc., priority 2013, dated 2016)
